Data taken from patent US11135231B2, “Methods and compositions for prevention and treatment of Apicomplexan infections” (Tufts Medical Center, Inc., priority 2016, dated 2021).

Experiments:
Cryptosporidium parvum [1] = experiment: Morphology of C. parvum parasites after treatment (immunofluorescence); assay type: cell-based; details: 100 nM, 9 hours (FIG. 6B)
Excerpt: Insets (upper right in each image) are enlargements of boxed regions (dashes). Red: Rabbit α gp15 detected with Alexafluor 594-conjugated goat anti-rabbit IgG secondary antibody; blue: DAPI; scale=20 μm; insets=5 μm.
(§1) The morphology of treated parasites (FIG. 6B) was similar to that seen with T. gondii, in which the vacuole contained intact nuclei but no intact merozoites.

[2] = test system: three human tumor cell lines; details: cited from earlier work
P. falciparum strains = experiment: 3H hypoxanthine incorporation assay of P. falciparum strains in human red blood cells; assay type: cell-based, Plasmodium falciparum
Procedure: The potency of the compounds of the invention against multi-drug resistant P. falciparum strains was tested. Parasites were cultured in 96-well plates in human red blood cells at 0.5% initial parasitemia for 72 hours in the presence of dilutions of tartrolon D/E (specifically, D2 as the starting material in FIG. 11A), purified tartrolon E (FIG. 11C), dihydroartemisinin (DHA, as a positive control in FIG. 11B), or DMSO (as a negative control). Parasites proliferation was then determined by ^3H hypoxanthine incorporation.
Specifically, parasitized red blood cells (pRBCs) were grown in 0.5% Albumax I (Thermo Fisher Scientific). Assays were set up in 96-well plates at 0.5% initial parasitemia and 0.5% hematocrit. Parasites were exposed to various concentrations of Tartrolon D or E and dihydroartemisinin (DHA) for 48 hours and then pulsed with 0.5 microcuries of tritium-labeled hypoxanthine Moravek (MT-700) for another 24 hours. At the end of 72 hours, assay plates were processed through an Inotech cell harvester and collected on Inotech glass fiber filters. Filters were transferred to Omniplate-96 cassettes (Perkin Elmer) and dried overnight at room temperature. About […] of Microscint-O scintillation cocktail (Perkin Elmer) was added to each well. Each well was counted for 2 minutes on a Packard Topcount scintillation counter. The uptake of radiolabeled hypoxanthine by compound-treated pRBCs was compared relative to uptake by DMSO solvent-treated controls. […] The starting material used as the active reagent in FIG. 11C was tartrolon E, purified as follows: extract from the bacterial pellet of the Teredinibacter turnerae T7901 was purified by reversed phase HPLC using diode array detection. A C18 column (Phenomenex CHO-7878, 100×10 mm) was employed with an isocratic mobile phase (85% acetontrile in water, 3.5 mL/min) to yield tartrolon E (4.7 mg, retention time 8 min).

Cryptosporidium parvum [3] = experiment: Host cell ATP assay (CellTiter-Glo) of C. parvum-infected Caco2 cells; assay type: cell-based; details: Caco-2, host cell ATP at 48 h post-infection, read-out: EC50 against C. parvum
Procedure: (§2) The effect of Tartrolon D/E on Cryptosporidium proliferation was evaluated by measuring host cell ATP levels (CellTiter-Glo® Luminescent Cell Viability Assay, Promega). Caco2 cells, having been infected with 2×10^5 C. parvum oocysts for 7 hours, were treated with dilutions of tartrolon D/E or DMSO (control) and cellular ATP levels were measured at the 48-hour time point post-infection.

Caco2 cell = Caco2 cell viability; assay type: cell-based; details: concentrations up to 500 nM
Procedure: as §2, §1

[4] = test system: Bovine Turbinate (BT) cells (ATCC #CRL-1390); experiment: Toxicity for mammalian cells, CellTiter Glo cell viability assay; assay type: cell-based; details: 24 hours
Procedure: Toxicity of the compounds of the invention for mammalian cells was determined. Bovine Turbinate (BT) cells (ATCC #CRL-1390) are a primary cell line (not a transformed cancer cell line) and were used to provide a preliminary evaluation of the toxicity of tartrolon D/E for mammalian cells. Briefly, BT cells were cultured in the presence of increasing starting concentrations of Tartrolon D/E for 24 hours. Cell proliferation was measured using CellTiter Glo Cell Viability Assay (Promega) and the data was analyzed with GraphPad Prism.

[5] = test system: apicomplexan parasites tested; experiment: Summary of in vitro EC50 against the apicomplexan parasites tested; assay type: cell-based; details: general range
Excerpt: For therapeutic purposes, the compounds of the invention may be formulated into a pharmaceutical composition, by mixing a therapeutically effective amount of the compound(s) of the invention with a pharmaceutically acceptable excipient, carrier, or diluent, and optionally in combination with one or more additional active agents, e.g., a second anti-parasitic agent. […] With an EC50 value as low as the picomolar to nanomolar level provides further confidence that the active ingredients, once administered in vivo, would likely achieve the expected anti-parasitic effects. According to an aspect of the present invention, tartrolon D and/or tartrolon E can be used as a therapeutic for treatment or prevention of human and animal diseases caused by various protozoan parasites.

HFF cell = HFF cell viability by MTS assay; assay type: cell-based, human; details: at the concentrations tested
Procedure: (§3) Readouts of host cell viability were used to quantify the dose-response of tartrolon D/E against T. gondii. Human foreskin fibroblast (HFF) cells, after having been infected by T. gondii for 24 hours, were treated with dilutions of tartrolon D/E that have been purified as in Example 2, or DMSO (control) for 72 hours. Host cell viability was then measured by MTS assay (CellTiter 96® AQueous One Solution Cell Proliferation Assay, Promega). The effective concentration at which 50% of the host cells survived (EC50) was about 5 nM (FIG. 4A).
At the concentrations tested, tartrolon D/E had no effect on HFF cell viability as measured by MTS assay, indicating likely safety for in vivo administration. […] The aberration in the parasite morphology, stark when compared to untreated cell infection shown in the left columns of FIGS. 4B and 4C, provides direct evidence of irreversible inhibition and killing of the target parasite by compounds of the invention.

T. gondii = experiment: MTS host cell viability readout of T. gondii-infected HFF cells; assay type: cell-based; details: Toxoplasma gondii, read-out: effective concentration at which 50% of the host cells survived (EC50)
Procedure: as §3

Plasmodium berghei = experiment: Plasmodium berghei-luciferase infection in mice, IVIS imaging; assay type: in vivo; details: IVIS image FIG. 14B, 1 of the 4 control mice
Procedure: Mice were infected with Plasmodium berghei expressing luciferase. 48 hours post infection mice were treated with tartrolon D/E (specifically, D2) initially solubilized in 2% methylcellulose and 0.5% Tween80 by intraperitoneal injection for 5 days, once per day. Control mice were treated with vehicle alone. Seven days after infection, mice were given luciferase substrate (150 mg/kg D-luciferin Potassium salt in PBS (Goldbio)) and imaged in an IVIS Lumina II to quantify level of infection.

Toxoplasma gondii = experiment: Immunofluorescence assay (anti-SAG1) of T. gondii-infected HFF cells; assay type: cell-based; details: T. gondii in HFF cells, FIG. 4B/4C
Procedure: FIGS. 2B and 2C show results for experiments that were conducted as for FIG. 2A, except that 24 hours after addition of the fractions, the infected HFF cells were processed for immunofluorescence assays. Briefly, infected and treated HFF cells that had been grown on coverslips in 6-well plates were fixed with methanol and parasites were detected using antibody to the SAG1 T. gondii surface antigen that was then detected with a red-fluorescence tagged secondary antibody. Host nuclei were stained with blue fluorescent marker DAPI (4′,6-diamidino-2-phenylindole). Host nuclei were clearly visible (blue) in all cell populations in both FIGS. 2B and 2C. Consistent with the trypan blue results, extensive red fluorescence was visible in cells treated with the control (DMSO) in FIG. 2C, meaning these cells were highly infected with the parasites.

Row | SMILES | morphology of treated parasites (Cryptosporidium parvum [1]) | cytotoxic activity [2] | EC50 (P. falciparum strains; Plasmodium falciparum, 3D7, Erythrocyte, parasite line 3D7) | EC50 (P. falciparum strains; Plasmodium falciparum, DD2, Erythrocyte, parasite line Dd2) | EC50 (P. falciparum strains; Plasmodium falciparum, Erythrocyte, parasite line 7G8) | EC50 (P. falciparum strains; Plasmodium falciparum, Erythrocyte, parasite line 2012 Indian Isolate (Goa)) | EC50 (P. falciparum strains; Plasmodium falciparum, Erythrocyte, parasite line D6) | EC50 (P. falciparum strains; Plasmodium falciparum, Erythrocyte, parasite line V1S) | EC50 (P. falciparum strains; Plasmodium falciparum, HB3, Erythrocyte, parasite line HB3) | EC50 (P. falciparum strains; Plasmodium falciparum, NF54, Erythrocyte, parasite line NF54) | EC50 (P. falciparum strains; Plasmodium falciparum, TM90C2A, Erythrocyte, parasite line TM90C2A) | EC50 (P. falciparum strains; parasite line 3D7) | EC50 (Cryptosporidium parvum [3]) | effect on Caco2 cell viability (Caco2 cell) | toxic dose at which 50% of the cells were killed [4] | EC50 [5] | effect on HFF cell viability (HFF cell) | EC50 (T. gondii) | treated mice with significant areas with no parasites (Plasmodium berghei) | parasite morphology (Toxoplasma gondii)
1 | C[C@@H]1C(=O)C[C@@H](O)CC/C=C/C=C\CC[C@H](C)OC(=O)C(O)[C@]2(O)O[C@@H](CC[C@H]2C)[C@H](C)C(=O)C[C@@H](O)CC/C=C/C=C\CC[C@H](C)OC(=O)C(O)[C@]2(O)O[C@H]1CC[C@H]2C (some centres unmarked) [Tartrolon D, tartrolon D] | most parasites did not progress past the single cell stage | strong cytotoxic activity | 0.11 nM | 0.28 nM | 0.18 nM | 0.26 nM | 0.14 nM | 0.31 nM | 0.13 nM | 0.2 nM | 0.16 nM | 0.19 nM | ~12 nM | – | – | – | – | – | – | –
2 | C[C@@H]1C(=O)C[C@@H](O)CC/C=C/C=C\CC[C@H](C)OC(=O)C(O)[C@]2(O)O[C@@H](CC[C@H]2C)[C@H](C)C(=O)C[C@@H](O)CC/C=C/C=C\CC[C@H](C)OC(=O)C(O)[C@]2(O)O[C@H]1CC[C@H]2C (some centres unmarked) [Tartrolon D/E] | – | – | – | – | – | – | – | – | – | – | – | – | – | no effect | 1.14 µM | 0.1 to 16 nM | no effect | ~5 nM | 4 of the 5 | aberrant morphology
